Where a name gives a salt, the structure may show the parent alone. Read-outs that look alike come from different tables or passages of the source. Where a SMILES comes first, the peptide text is derived from it. [ ]: non-standard residue; d: D form. The star is where a group is joined. Phe(4-guanidino) = N=C(N)Nc1ccc(C[C@H](N)C(=O)O)cc1; Benzoyl(4-Ph) = O=C(c1ccc(-c2ccccc2)cc1)*; Palmitoyl = CCCCCCCCCCCCCCCC(=O)*; 4Pal = N[C@@H](Cc1ccncc1)C(=O)O; Myristoyl = CCCCCCCCCCCCCC(=O)*; X2 = O=C(c1ccc(-c2cccs2)s1)*; Lauroyl = CCCCCCCCCCCC(=O)*; hLys = NCCCCC[C@H](N)C(=O)O; X1 = FC(F)(F)c1ccc(CN*)cc1; Pip = O=C(O)[C@@H]1CCCCN1; Octanoyl = CCCCCCCC(=O)*; NHOctyl = CCCCCCCCN*; Propionyl = CCC(=O)*; X3 = COc1cccc(CN*)c1; N(Me)OMe = CON(C)*; NHPr = CCCN*
Target: T1, DENV protease (Dengue virus type 2, UniProt P29990)
T1 construct: The virus-encoded dengue protease comprises the amino-terminal 180 amino acids of NS3 (NS3pro) of the polyprotein
Assay: biochemical
Conditions: read-out: inhibition of DENV
Description: Dilutions were made starting from 10 mM stock solutions in DMSO and final concentrations were measured in triplicates. The inhibitors were preincubated for 15 min with DENV protease (100 nM) in the assay buffer (50 mM Tris-HCl pH 9.0, ethylene glycol (10% v/v), and 0.0016% Brij 58). The enzymatic reaction was initiated by the addition of the FRET substrate (final concentration 50 μM) to obtain a final assay volume of 100 μL per well. The enzymatic activity was monitored for 15 min and determined as a slope of relative fluorescence units per second (RFU/s) for each concentration. The mean of the triplicates were plotted against the corresponding concentration in CDDVault to determine the IC50-values. Analogous procedures were used to determine the inhibitory potency on WNV (Kühl et al., J. Med. Chem. 2020, 63 (15): 8179-8197) and ZIKA protease (Nitsche et al., ACS Med. Chem. Lett. 2019 Feb. 14; 10 (2): 168-174). For selectivity screening of active candidates, similar biochemical assays with human serine proteases trypsin (Weigel et al., J. Med. Chem. 2015, 58 (19), 7719-7733.) and/or thrombin (Nitsche et al., J. Med. Chem. 2013, 56 (21), 8389-8403) were used.

T1 sequence (P29990 1398-1437): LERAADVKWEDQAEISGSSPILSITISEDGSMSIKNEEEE
T1 sequence (P29990 1476-1653): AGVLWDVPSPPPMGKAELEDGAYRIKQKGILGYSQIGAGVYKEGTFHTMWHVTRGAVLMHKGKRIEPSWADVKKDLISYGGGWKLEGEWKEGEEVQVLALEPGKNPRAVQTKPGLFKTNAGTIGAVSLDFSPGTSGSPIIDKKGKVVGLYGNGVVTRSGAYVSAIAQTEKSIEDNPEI

SMILES | inhibition at 50 µM (at 50 μM) | other results
CCCCCCCCCCCC(=O)N[C@@H](C)C(=O)N[C@@H](CCCCN)C(=O)N[C@@H](C)C(=O)N[C@H](C)C(N)=O [compound 152] (Lauroyl-AKA[dA]-NH2) | ≥ 25% | 
CCCCCCCCCCCCCCCC(=O)N[C@@H](CCCCN)C(=O)N[C@@H](C)C(=O)N[C@@H](C)C(=O)N[C@H](C(N)=O)c1ccc(OCc2ccccc2)cc1 [compound 139] | ≥ 25% | 
CCCNC(=O)[C@H](CCCCN)NC(=O)[C@H](CCCCN)NC(=O)[C@H](CCCCN)NC(=O)[C@H](Cc1ccccc1)NC(=O)CC [compound 23] (Propionyl-FKKK-NHPr) | ≥ 25% | 
CCCCCCCCCCCCCCCC(=O)N[C@@H](CCCCN)C(=O)N[C@@H](C)C(=O)N[C@@H](C)C(=O)N[C@@H](CCCCN)C(=O)N(C)C [compound 187] (Palmitoyl-KAAK-NMe2) | ≥ 25% | 
CCCCCCCCCCCCCCCC(=O)N[C@@H](Cc1ccc(NC(=N)N)cc1)C(=O)N[C@@H](CCC(N)=O)C(=O)N[C@@H](Cc1ccccc1)C(N)=O [compound 68] (Palmitoyl-[Phe(4-guanidino)]-Gln-Phe-NH2) | ≥ 25% | 
CCCCCCCCNC(=O)[C@H](CCCCN)NC(=O)[C@H](CCCCN)NC(=O)[C@H](CCCCN)NC(=O)[C@H](CC(C)C)NC(=O)CCCCCCC [compound 19] (Octanoyl-LKKK-NHOctyl) | ≥ 25% | 
CCCCCCCCCCCCCCCC(=O)N[C@@H](CCCNC(=N)N)C(=O)N[C@@H](CCC(N)=O)C(=O)N[C@@H](CCCCN)C(N)=O [compound 40] (Palmitoyl-Arg-Gln-Lys-NH2) | ≥ 25% | 
CCCCCCCCCCCCCCCC(=O)N[C@@H](CCCc1c[nH]c(N)n1)C(=O)N[C@@H](CCC(N)=O)C(=O)N[C@@H](Cc1ccccc1)C(N)=O [compound 56] | ≥ 25% | 
CCCCCCCCCCCCCCCC(=O)N[C@@H](CCCCN)C(=O)N[C@@H](C)C(=O)N[C@@H](C)C(=O)N[C@@H](C(N)=O)c1ccc(OCc2ccccc2)cc1 [compound 138] | ≥ 25% | 
CCCCCCCCNC(=O)[C@H](CCCCN)NC(=O)[C@H](C)NC(=O)[C@H](CCCCN)NC(=O)[C@H](CC(C)C)NC(=O)CCCCCCC [compound 25] (Octanoyl-LKAK-NHOctyl) | ≥ 25% | 
CCCCCCCCCCCCCCCC(=O)N[C@@H](CCCCN)C(=O)N[C@@H](C)C(=O)N[C@@H](C)C(=O)N[C@@H](CCCCN)C(=O)N(C)OC [compound 177] (Palmitoyl-KAAK-{N(Me)OMe}) | ≥ 25% | 
CCCCCCCCCCCCCCCC(=O)N[C@@H](CCCCN)C(=O)N[C@@H](C)C(=O)N[C@H](CCCCN)C(=O)NS(=O)(=O)C1CC1 [compound 179] | ≥ 25% | 
CCCCCCCCCCCCCCCC(=O)N[C@@H](CCCCN)C(=O)N1CCC[C@H]1C(=O)N[C@@H](C)C(=O)N[C@@H](CCCCN)C(=O)NS(=O)(=O)C1CC1 [compound 127] | ≥ 25% | 
CCCCCCCCCCCCCCCC(=O)N[C@@H](CCCCN)C(=O)N[C@@H](C)C(=O)N[C@@H](C)C(=O)N[C@H](C)C(N)=O [compound 147] (Palmitoyl-KAA[dA]-NH2) | ≥ 25% | 
CCCCCCCCCCCCCCCC(=O)N[C@@H](C)CC(=O)N[C@@H](CCCNC(=N)N)C(=O)N[C@@H](CCC(N)=O)CC(=O)N[C@@H](CCCCN)C(N)=O [compound 72] | ≥ 25% | 
CCCCCCCCCCCCCCCC(=O)N[C@@H](CCc1c[nH]c(N)n1)C(=O)N[C@@H](CCC(N)=O)C(=O)N[C@@H](Cc1ccccc1)C(N)=O [compound 55, (S)—N1—((S)-1-amino-1-oxo-3-phenylpropan-2-yl)-2-((S)-4-(2-amino-1H-imidazol-4-yl)-2-palmitamidobutanamido)pentanediamide TFA salt] |  | inhibition at 50 µM: ≥ 25%
CCCCCCCCCCCCCC(=O)N[C@@H](CCCCN)C(=O)N[C@@H](C)C(=O)N[C@@H](C)C(=O)N[C@H](CCCCN)C(N)=O [compound 151] (Myristoyl-KAA[dK]-NH2) | ≥ 25% | 
CCCCCCCCCCCCCCCC(=O)N[C@@H](Cc1c[nH]c(N)n1)C(=O)N[C@@H](CCC(N)=O)C(=O)N[C@@H](Cc1ccccc1)C(N)=O [compound 62] | ≥ 25% | 
CCCCCCCCCCCCCCCC(=O)N[C@@H](CCCCN)C(=O)N[C@@H](CCCCN)C(N)=O [compound 110] | ≥ 25% | 
CCCCCCCCCCCCCCCC(=O)N[C@@H](CCCNC(=N)N)C(=O)N[C@@H](CCC(N)=O)C(=O)N[C@@H](Cc1ccccc1)C(=O)O [compound 45] (Palmitoyl-Arg-Gln-Phe-OH) | ≥ 25% | 
CCCCCCCCCCCCCCCC(=O)N[C@@H](CCCNC(=N)N)C(=O)N[C@@H](CCC(N)=O)C(=O)N[C@@H](CCCCN)C(=O)c1ccccc1 [compound 42] | ≥ 25% | 

SMILES | inhibition at 50 µM (at 50 μM) | other results
CCCCCCCCCCCCCCCC(=O)N[C@@H](CCCNC(=N)N)C(=O)N[C@@H](CCCNC(=N)N)C(N)=O [compound 112] (Palmitoyl-Arg-Arg-NH2) | ≥ 25% | 
CCCCCCCCCCCCCCCC(=O)N[C@H](CCCCN)C(=O)N[C@@H](C)C(=O)N[C@@H](CCCCN)C(N)=O [compound 159] (Palmitoyl-[dK]-Ala-Lys-NH2) | ≥ 25% | 
CCCCCCCCCCCCCCCC(=O)N[C@@H](Cc1ccncc1)C(=O)N[C@@H](CCC(N)=O)C(=O)N[C@@H](Cc1ccccc1)C(N)=O [compound 63] (Palmitoyl-[4Pal]-Gln-Phe-NH2) | ≥ 25% | 
C[C@H](NC(=O)c1ccc(-c2ccccc2)cc1)C(=O)N[C@@H](CCCNC(=N)N)C(=O)N[C@@H](CCC(N)=O)C(=O)N[C@@H](CCCCN)C(N)=O [compound 37] ({Benzoyl(4-Ph)}-ARQK-NH2) | ≥ 25% | 
C[C@H](NC(=O)c1ccc(-c2ccccc2)cc1)C(=O)N[C@@H](CCCNC(=N)N)C(=O)N[C@@H](CCC(N)=O)C(=O)N[C@@H](CCCCN)C(=O)NCc1ccc(C(F)(F)F)cc1 [compound 38] ({Benzoyl(4-Ph)}-ARQK-X1) | ≥ 25% | 
CCCCCCCCCCCCCCCC(=O)N[C@@H](CCCCN)C(=O)N1CCC[C@H]1C(=O)N[C@@H](C)C(=O)N[C@@H](CCc1c[nH]cn1)C(N)=O [compound 165] | ≥ 25% | 
CCCCCCCCCCCCCCCC(=O)N[C@@H](CCCCN)C(=O)N[C@@H](C)C(=O)N[C@@H](C)C(=O)N[C@H](CCCCN)c1nnc(C)o1 [compound 2] | ≥ 25% | 
CCCCCCCCCCCCCCCC(=O)N[C@@H](CCCCN)C(=O)N[C@@H](Cc1c[nH]cn1)C(N)=O [compound 162] | ≥ 25% | 
CCCCCCCCCCCCCCCC(=O)N[C@@H](CCCCN)C(=O)N1CCC[C@H]1C(=O)N[C@@H](C)C(=O)N[C@@H](Cc1c[nH]cn1)C(N)=O [compound 163] (Palmitoyl-KPAH-NH2) | ≥ 25% | 
CCCCCCCCCCCCCCCC(=O)N[C@@H](CCCCN)C(=O)N1CCCC[C@H]1C(=O)N[C@@H](C)C(=O)N[C@@H](CCCCN)C(N)=O [compound 15] (Palmitoyl-K[Pip]AK-NH2) | ≥ 25% | 
COc1cccc(CNC(=O)[C@H](CCCCN)NC(=O)[C@H](CCC(N)=O)NC(=O)[C@H](CCCNC(=N)N)NC(=O)[C@H](C)NC(=O)c2ccc(-c3cccs3)s2)c1 [compound 36] (X2-ARQK-X3) | ≥ 25% | 
CCCCCCCCCCCCCCCC(=O)N[C@@H](CCCCCN)C(=O)N1CCC[C@H]1C(=O)N[C@@H](CCCCN)C(N)=O [compound 121] (Palmitoyl-[hLys]-Pro-Lys-NH2) | ≥ 25% | 
CCCCCCCCCCCCCCCCNC(=O)[C@H](CCCCN)NC(=O)C[C@H](C)NC(=O)[C@H](C)NC(=O)C[C@@H](N)CCCCN [compound 83] | ≥ 25% | 
CCCCCCCCCCCCCCCC(=O)N[C@@H](CCCCN)C(=O)N[C@@H](C)C(=O)N[C@@H](C)C(=O)N[C@H](Cc1c[nH]c2ccccc12)C(N)=O [compound 93] (Palmitoyl-KAA[dW]-NH2) | ≥ 25% | 
CCCCCCCCCCCCCCCC(=O)N[C@@H](CCCCN)C(=O)N[C@@H](C)C(=O)N[C@@H](CCCCN)C(=O)NS(=O)(=O)C1CC1 [compound 178] | ≥ 25% | 
CCCCCCCCCCCCCCCC(=O)N[C@@H](CCCCN)C(=O)N1CCC[C@H]1C(=O)N[C@@H](C)C(=O)N[C@H](Cc1c[nH]cn1)C(N)=O [compound 164] (Palmitoyl-KPA[dH]-NH2) | ≥ 25% | 
CCCCCCCCNC(=O)[C@H](CCCCN)NC(=O)[C@H](CCCNC(=N)N)NC(=O)[C@H](C)NC(=O)[C@H](CCCNC(=N)N)NC(=O)CCCCCCC [compound 29] (Octanoyl-RARK-NHOctyl) | ≥ 25% | 
CCCCCCCCCCCCCCCC(=O)N[C@@H](CCCCN)C(=O)N[C@@H](C)C(=O)N[C@@H](C)C(=O)N[C@H](CCc1ccccc1)c1nnc(C)o1 [compound 3] | ≥ 25% | 
CCCCCCCCCCCCCCCC(=O)N[C@@H](C)C(=O)N[C@@H](CCCCN)C(=O)N[C@@H](C)C(=O)N[C@H](C)C(N)=O [compound 148] (Palmitoyl-AKA[dA]-NH2) | ≥ 25% | inhibition at 1 µM (at 1 μM): ≥ 20%
CCCCCCCCCCCCCCCCNC(=O)[C@H](CCCCN)NC(=O)[C@H](C)NC(=O)[C@@H](N)CCCCN [compound 98] | ≥ 25% | 
CCCCCCCCCCCCCCCC(=O)N[C@@H](CCNc1ncc[nH]1)C(=O)N[C@@H](CCC(N)=O)C(=O)N[C@@H](Cc1ccccc1)C(N)=O [compound 66] | ≥ 25% | 
